Results taken from ChEMBL document CHEMBL3885861, “Open TG-GATES”.

Organism: Rattus norvegicus
Assay: Open TG-GATES - Regimen: Daily Repeat
Format: toxicity, organism-based, Sprague-Dawley
Design: regimen Daily Repeat, gender Male, age 6 weeks
Conditions: in vivo, po, route gavage; for APTT / Bas / Eos / Fbg / Hb / Ht / Lym / MCH / MCHC / MCV / Mono / Neu / PT / Plat / RBC / Ret / WBC: tissue Blood; for KIDNEY_L / KIDNEY_R / KIDNEY_TOTAL: tissue Kidney; for LIVER: tissue Liver; for A/G / ALP / ALT / AST / BUN / CRE / Ca / Cl / DBIL / GLC / IP / K / LDH / Na / PL / RALB / TBIL / TC / TG / TP / gamma-GTP: tissue Plasma
[1] = 250 mg/kg, 72 h, dose level Middle, time 3 day
[2] = 250 mg/kg, […], dose level Middle, time 7 day
[3] = 250 mg/kg, […], dose level Middle, time 14 day
[4] = 250 mg/kg, […], dose level Middle, time 28 day
[5] = 750 mg/kg, 72 h, dose level High, time 3 day
[6] = 750 mg/kg, […], dose level High, time 7 day
[7] = 750 mg/kg, […], dose level High, time 14 day
[8] = 750 mg/kg, […], dose level High, time 28 day

CN(C/C=C/C#CC(C)(C)C)Cc1cccc2ccccc12 [TERBINAFINE]
TERMINAL_BW [1]: 237.2 g
APTT [1]: 17.7 s
Bas [1]: 1%
Eos [1]: 1%
Fbg [1]: 223.6 mg/dL
Hb [1]: 13.6 g/dL
Ht [1]: 40.4%
Lym [1]: 77.2%
MCH [1]: 21.7 pg
MCHC [1]: 33.7%
MCV [1]: 64.4 fL
Mono [1]: 3.4%
Neu [1]: 18%
PT [1]: 11.6 s
Plat [1]: 122 x10_4/uL
RBC [1]: 628.6 x10_4/ul
Ret [1]: 5.9%
WBC [1]: 115.2 x10_2/uL
KIDNEY_L [1]: 1.1 g
KIDNEY_R [1]: 1.1 g
KIDNEY_TOTAL [1]: 2.2 g
LIVER [1]: 12.2 g
A/G [1]: 1.7
ALP [1]: 954.4 IU/L
ALT [1]: 39.8 IU/L
AST [1]: 71.4 IU/L
BUN [1]: 14.8 mg/dL
CRE [1]: 0.4 mg/dL
Ca [1]: 10.5 mg/dL
Cl [1]: 103 meq/L
DBIL [1]: 0.078 mg/dL
GLC [1]: 189 mg/dL
IP [1]: 7.5 mg/dL
K [1]: 4 meq/L
LDH [1]: 197 IU/L
Na [1]: 141.4 meq/L
PL [1]: 141.2 mg/dL
RALB [1]: 3.5 g/dL
TBIL [1]: 0.1 mg/dL
TC [1]: 78.6 mg/dL
TG [1]: 65.6 mg/dL
TP [1]: 5.5 g/dL
gamma-GTP [1]: 1.4 IU/L
TERMINAL_BW [2]: 268.6 g
TERMINAL_BW [3]: 323.9 g
TERMINAL_BW [4]: 411.4 g
APTT [2]: 21.6 s
Bas [2]: 1%
Eos [2]: 0.6%
Fbg [2]: 206 mg/dL
Hb [2]: 13.7 g/dL
Ht [2]: 39.7%
Lym [2]: 81.6%
MCH [2]: 20.8 pg
MCHC [2]: 34.6%
MCV [2]: 60.2 fL
Mono [2]: 2.4%
Neu [2]: 13.8%
PT [2]: 12.2 s
Plat [2]: 134.5 x10_4/uL
RBC [2]: 660 x10_4/ul
Ret [2]: 4.1%
WBC [2]: 128 x10_2/uL
APTT [3]: 19.5 s
Bas [3]: 1%
Eos [3]: 1%
Fbg [3]: 219.6 mg/dL
Hb [3]: 14.1 g/dL
Ht [3]: 41.7%
Lym [3]: 82.4%
MCH [3]: 19.9 pg
MCHC [3]: 33.8%
MCV [3]: 58.8 fL
Mono [3]: 2.8%
Neu [3]: 13%
PT [3]: 11.6 s
Plat [3]: 124.9 x10_4/uL
RBC [3]: 710 x10_4/ul
Ret [3]: 4.3%
WBC [3]: 135.6 x10_2/uL
APTT [4]: 22 s
Bas [4]: 1%
Eos [4]: 1.2%
Fbg [4]: 223.8 mg/dL
Hb [4]: 14.5 g/dL
Ht [4]: 41.4%
Lym [4]: 81%
MCH [4]: 20 pg
MCHC [4]: 35%
MCV [4]: 57.1 fL
Mono [4]: 2.2%
Neu [4]: 14.8%
PT [4]: 12.2 s
Plat [4]: 121.1 x10_4/uL
RBC [4]: 725.4 x10_4/ul
Ret [4]: 3.1%
WBC [4]: 136.2 x10_2/uL
KIDNEY_L [2]: 1.3 g
KIDNEY_R [2]: 1.2 g
KIDNEY_TOTAL [2]: 2.5 g
KIDNEY_L [3]: 1.4 g
KIDNEY_R [3]: 1.4 g
KIDNEY_TOTAL [3]: 2.8 g
KIDNEY_L [4]: 1.7 g
KIDNEY_R [4]: 1.7 g
KIDNEY_TOTAL [4]: 3.4 g
LIVER [2]: 13.7 g
LIVER [3]: 16.3 g
LIVER [4]: 20.2 g
A/G [2]: 1.6
ALP [2]: 738.6 IU/L
ALT [2]: 37.6 IU/L
AST [2]: 70.4 IU/L
BUN [2]: 13.6 mg/dL
CRE [2]: 0.4 mg/dL
Ca [2]: 10.4 mg/dL
Cl [2]: 103.6 meq/L
DBIL [2]: 0.07 mg/dL
GLC [2]: 192 mg/dL
IP [2]: 7.4 mg/dL
K [2]: 4 meq/L
LDH [2]: 188.8 IU/L
Na [2]: 142.6 meq/L
PL [2]: 123.6 mg/dL
RALB [2]: 3.6 g/dL
TBIL [2]: 0.1 mg/dL
TC [2]: 65.2 mg/dL
TG [2]: 53.8 mg/dL
TP [2]: 5.8 g/dL
gamma-GTP [2]: 1 IU/L
A/G [3]: 1.5
ALP [3]: 690 IU/L
ALT [3]: 34 IU/L
AST [3]: 62.8 IU/L
BUN [3]: 14.2 mg/dL
CRE [3]: 0.4 mg/dL
Ca [3]: 10.6 mg/dL
Cl [3]: 103.6 meq/L
DBIL [3]: 0.088 mg/dL
GLC [3]: 196.4 mg/dL
IP [3]: 8 mg/dL
K [3]: 3.8 meq/L
LDH [3]: 155.2 IU/L
Na [3]: 142.2 meq/L
PL [3]: 128 mg/dL
RALB [3]: 3.6 g/dL
TBIL [3]: 0.1 mg/dL
TC [3]: 68 mg/dL
TG [3]: 79.8 mg/dL
TP [3]: 5.9 g/dL
gamma-GTP [3]: 1 IU/L
A/G [4]: 1.3
ALP [4]: 565.8 IU/L
ALT [4]: 34 IU/L
AST [4]: 61.2 IU/L
BUN [4]: 18.2 mg/dL
CRE [4]: 0.5 mg/dL
Ca [4]: 10.4 mg/dL
Cl [4]: 103.6 meq/L
DBIL [4]: 0.088 mg/dL
GLC [4]: 229.6 mg/dL
IP [4]: 7.1 mg/dL
K [4]: 4 meq/L
LDH [4]: 167.4 IU/L
Na [4]: 141.4 meq/L
PL [4]: 134 mg/dL
RALB [4]: 3.5 g/dL
TBIL [4]: 0.2 mg/dL
TC [4]: 72 mg/dL
TG [4]: 69.4 mg/dL
TP [4]: 6.1 g/dL
gamma-GTP [4]: 1.4 IU/L
TERMINAL_BW [5]: 217.7 g
APTT [5]: 22.6 s
Bas [5]: 0.8%
Eos [5]: 0.8%
Fbg [5]: 200.6 mg/dL
Hb [5]: 14.1 g/dL
Ht [5]: 41.1%
Lym [5]: 82.8%
MCH [5]: 20.9 pg
MCHC [5]: 34.2%
MCV [5]: 61 fL
Mono [5]: 2.6%
Neu [5]: 13%
PT [5]: 12.5 s
Plat [5]: 137.3 x10_4/uL
RBC [5]: 673.8 x10_4/ul
Ret [5]: 4.5%
WBC [5]: 64.8 x10_2/uL
KIDNEY_L [5]: 1 g
KIDNEY_R [5]: 1.1 g
KIDNEY_TOTAL [5]: 2.1 g
LIVER [5]: 11.4 g
A/G [5]: 2
ALP [5]: 748.6 IU/L
ALT [5]: 34.6 IU/L
AST [5]: 62.6 IU/L
BUN [5]: 10.6 mg/dL
CRE [5]: 0.4 mg/dL
Ca [5]: 9.5 mg/dL
Cl [5]: 102.8 meq/L
DBIL [5]: 0.09 mg/dL
GLC [5]: 172 mg/dL
IP [5]: 9.2 mg/dL
K [5]: 3.8 meq/L
LDH [5]: 207.4 IU/L
Na [5]: 140.8 meq/L
PL [5]: 123.2 mg/dL
RALB [5]: 3.6 g/dL
TBIL [5]: 0.2 mg/dL
TC [5]: 81 mg/dL
TG [5]: 19.2 mg/dL
TP [5]: 5.4 g/dL
gamma-GTP [5]: 1.8 IU/L
TERMINAL_BW [6]: 187.9 g
TERMINAL_BW [7]: 255.9 g
TERMINAL_BW [8]: 360.5 g
APTT [6]: 45.7 s
Bas [6]: 1%
Eos [6]: 0.6%
Fbg [6]: 187.6 mg/dL
Hb [6]: 15.9 g/dL
Ht [6]: 45.2%
Lym [6]: 77.6%
MCH [6]: 21.1 pg
MCHC [6]: 35.2%
MCV [6]: 59.8 fL
Mono [6]: 4.6%
Neu [6]: 15.8%
PT [6]: 30.8 s
Plat [6]: 146 x10_4/uL
RBC [6]: 755 x10_4/ul
Ret [6]: 0.3%
WBC [6]: 82.6 x10_2/uL
APTT [7]: 21.4 s
Bas [7]: 0.6%
Eos [7]: 0.6%
Fbg [7]: 198.4 mg/dL
Hb [7]: 13.8 g/dL
Ht [7]: 40.2%
Lym [7]: 70.4%
MCH [7]: 20.7 pg
MCHC [7]: 34.3%
MCV [7]: 60.3 fL
Mono [7]: 3.2%
Neu [7]: 24.4%
PT [7]: 11.9 s
Plat [7]: 119.4 x10_4/uL
RBC [7]: 667 x10_4/ul
Ret [7]: 5.8%
WBC [7]: 116.6 x10_2/uL
APTT [8]: 26 s
Bas [8]: 0.4%
Eos [8]: 1%
Fbg [8]: 211.6 mg/dL
Hb [8]: 14 g/dL
Ht [8]: 40.2%
Lym [8]: 76.4%
MCH [8]: 19.8 pg
MCHC [8]: 34.8%
MCV [8]: 57.1 fL
Mono [8]: 3.4%
Neu [8]: 18.4%
PT [8]: 12.8 s
Plat [8]: 110.7 x10_4/uL
RBC [8]: 705.6 x10_4/ul
Ret [8]: 2.9%
WBC [8]: 115.7 x10_2/uL
KIDNEY_L [6]: 1.1 g
KIDNEY_R [6]: 1.1 g
KIDNEY_TOTAL [6]: 2.2 g
KIDNEY_L [7]: 1.2 g
KIDNEY_R [7]: 1.3 g
KIDNEY_TOTAL [7]: 2.5 g
KIDNEY_L [8]: 1.6 g
KIDNEY_R [8]: 1.7 g
KIDNEY_TOTAL [8]: 3.3 g
LIVER [6]: 12.4 g
LIVER [7]: 16.5 g
LIVER [8]: 21.9 g
A/G [6]: 1.9
ALP [6]: 692.8 IU/L
ALT [6]: 52 IU/L
AST [6]: 81.4 IU/L
BUN [6]: 14.6 mg/dL
CRE [6]: 0.5 mg/dL
Ca [6]: 9.1 mg/dL
Cl [6]: 103.6 meq/L
DBIL [6]: 0.1 mg/dL
GLC [6]: 141 mg/dL
IP [6]: 7 mg/dL
K [6]: 4.6 meq/L
LDH [6]: 214.2 IU/L
Na [6]: 142.4 meq/L
PL [6]: 145 mg/dL
RALB [6]: 3.5 g/dL
TBIL [6]: 0.2 mg/dL
TC [6]: 96.8 mg/dL
TG [6]: 21.4 mg/dL
TP [6]: 5.3 g/dL
gamma-GTP [6]: 2.6 IU/L
A/G [7]: 1.7
ALP [7]: 536.8 IU/L
ALT [7]: 37 IU/L
AST [7]: 60.2 IU/L
BUN [7]: 15.8 mg/dL
CRE [7]: 0.4 mg/dL
Ca [7]: 10.4 mg/dL
Cl [7]: 103 meq/L
DBIL [7]: 0.074 mg/dL
GLC [7]: 183 mg/dL
IP [7]: 7.8 mg/dL
K [7]: 4 meq/L
LDH [7]: 151.8 IU/L
Na [7]: 142.8 meq/L
PL [7]: 136.4 mg/dL
RALB [7]: 3.8 g/dL
TBIL [7]: 0.1 mg/dL
TC [7]: 82 mg/dL
TG [7]: 20.4 mg/dL
TP [7]: 6.1 g/dL
gamma-GTP [7]: 1.2 IU/L
A/G [8]: 1.8
ALP [8]: 601.2 IU/L
ALT [8]: 50 IU/L
AST [8]: 65.4 IU/L
BUN [8]: 14.8 mg/dL
CRE [8]: 0.5 mg/dL
Ca [8]: 10.2 mg/dL
Cl [8]: 103.2 meq/L
DBIL [8]: 0.08 mg/dL
GLC [8]: 197.2 mg/dL
IP [8]: 8 mg/dL
K [8]: 3.8 meq/L
LDH [8]: 178.8 IU/L
Na [8]: 142.4 meq/L
PL [8]: 146.4 mg/dL
RALB [8]: 3.9 g/dL
TBIL [8]: 0.2 mg/dL
TC [8]: 88.4 mg/dL
TG [8]: 18.2 mg/dL
TP [8]: 6.1 g/dL
gamma-GTP [8]: 1.6 IU/L
